This passage reports IC50 results from ChEMBL document CHEMBL3886358, “Quinolyl-containing hydroxamic acid compound and preparation method thereof, and pharmaceutical composition containing this compound and use thereof” (2015).

The target in one assay is Histone deacetylase 1 (Homo sapiens, UniProt Q13547). The assay can be described thus: (§1) Inhibition Assay: The inhibitions of activities of HDAC enzymes by the compounds N1'-[3-fluoro-4-[[7-[4-(hydroxyamino)-4-oxobutoxy]-6-methoxy-4-quinolyl]oxy]phenyl]-N1-(4-fluoro phenyl)cyclopropane-1,1-dicarboxamide prepared in Example 9 and N1'-[3-fluoro-4-[[7-[6-(hydroxyamino)-6-oxohexyloxy]-6-methoxy-4-quinolyl]oxy]phenyl]-N1-(4-fluo rophenyl)cyclopropane-1,1-dicarboxamide prepared in Example 13 were measured by Reaction Biology Corporation (Reaction Biology Corp., One Great Valley Parkway, Suite 2, Malvern, PA 19355, USA . http://www.reactionbiology.com/pages/hdac.htm). The HDAC enzymes tested include the following 11 HDAC isoforms: HDAC1, HDAC2, HDAC3, HDAC4, HDAC5, HDAC6, HDAC7, HDAC8, HDAC9, HDAC10 and HDAC11.Specific steps were as follows: The compound of the present invention was dissolved in dimethyl sulfoxide (DMSO) to make a stock solution of 10 mM. The stock solution was diluted in 4-fold series starting from 10 mM to prepare 10 different dosages.

In a further assay the target is T1, Histone deacetylase 11 (Homo sapiens, UniProt Q96DB2).
T1 sequence (Q96DB2 whole entry): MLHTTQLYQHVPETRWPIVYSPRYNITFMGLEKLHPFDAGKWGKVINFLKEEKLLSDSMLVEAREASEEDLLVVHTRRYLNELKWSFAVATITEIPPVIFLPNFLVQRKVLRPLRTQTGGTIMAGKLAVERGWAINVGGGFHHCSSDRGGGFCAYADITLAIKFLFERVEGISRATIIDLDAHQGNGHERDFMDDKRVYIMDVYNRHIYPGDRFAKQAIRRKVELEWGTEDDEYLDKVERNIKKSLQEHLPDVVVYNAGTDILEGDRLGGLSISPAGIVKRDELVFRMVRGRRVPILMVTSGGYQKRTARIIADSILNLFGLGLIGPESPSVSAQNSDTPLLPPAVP
The assay is described as §1.

For the next assay, the target named is Histone deacetylase 2 (Homo sapiens, UniProt Q92769). The description is as §1.
A further assay addresses Histone deacetylase 3 (Homo sapiens, UniProt O15379). Described as §1.
A further assay concerns the target Histone deacetylase 4 (Homo sapiens, UniProt P56524). Described as §1.
A further assay deals with Histone deacetylase 5 (Homo sapiens, UniProt Q9UQL6). The assay is described as §1.
The target of a further assay is T2, Histone deacetylase 8 (Homo sapiens, UniProt Q9BY41).
T2 sequence (Q9BY41 whole entry): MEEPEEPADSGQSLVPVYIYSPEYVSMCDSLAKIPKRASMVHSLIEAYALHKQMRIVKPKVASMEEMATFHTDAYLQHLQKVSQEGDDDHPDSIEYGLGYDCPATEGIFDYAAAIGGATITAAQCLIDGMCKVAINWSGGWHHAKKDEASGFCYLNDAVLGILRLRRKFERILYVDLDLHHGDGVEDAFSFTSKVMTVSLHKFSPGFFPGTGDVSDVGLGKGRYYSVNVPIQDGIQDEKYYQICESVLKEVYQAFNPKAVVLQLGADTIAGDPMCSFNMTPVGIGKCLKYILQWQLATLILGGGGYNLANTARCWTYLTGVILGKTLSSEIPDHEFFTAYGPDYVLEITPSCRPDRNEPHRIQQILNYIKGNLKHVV
Described as §1.

Assay [1] addresses T3, Protein deacetylase HDAC6 (Homo sapiens, UniProt Q9UBN7).
T3 sequence (Q9UBN7 whole entry): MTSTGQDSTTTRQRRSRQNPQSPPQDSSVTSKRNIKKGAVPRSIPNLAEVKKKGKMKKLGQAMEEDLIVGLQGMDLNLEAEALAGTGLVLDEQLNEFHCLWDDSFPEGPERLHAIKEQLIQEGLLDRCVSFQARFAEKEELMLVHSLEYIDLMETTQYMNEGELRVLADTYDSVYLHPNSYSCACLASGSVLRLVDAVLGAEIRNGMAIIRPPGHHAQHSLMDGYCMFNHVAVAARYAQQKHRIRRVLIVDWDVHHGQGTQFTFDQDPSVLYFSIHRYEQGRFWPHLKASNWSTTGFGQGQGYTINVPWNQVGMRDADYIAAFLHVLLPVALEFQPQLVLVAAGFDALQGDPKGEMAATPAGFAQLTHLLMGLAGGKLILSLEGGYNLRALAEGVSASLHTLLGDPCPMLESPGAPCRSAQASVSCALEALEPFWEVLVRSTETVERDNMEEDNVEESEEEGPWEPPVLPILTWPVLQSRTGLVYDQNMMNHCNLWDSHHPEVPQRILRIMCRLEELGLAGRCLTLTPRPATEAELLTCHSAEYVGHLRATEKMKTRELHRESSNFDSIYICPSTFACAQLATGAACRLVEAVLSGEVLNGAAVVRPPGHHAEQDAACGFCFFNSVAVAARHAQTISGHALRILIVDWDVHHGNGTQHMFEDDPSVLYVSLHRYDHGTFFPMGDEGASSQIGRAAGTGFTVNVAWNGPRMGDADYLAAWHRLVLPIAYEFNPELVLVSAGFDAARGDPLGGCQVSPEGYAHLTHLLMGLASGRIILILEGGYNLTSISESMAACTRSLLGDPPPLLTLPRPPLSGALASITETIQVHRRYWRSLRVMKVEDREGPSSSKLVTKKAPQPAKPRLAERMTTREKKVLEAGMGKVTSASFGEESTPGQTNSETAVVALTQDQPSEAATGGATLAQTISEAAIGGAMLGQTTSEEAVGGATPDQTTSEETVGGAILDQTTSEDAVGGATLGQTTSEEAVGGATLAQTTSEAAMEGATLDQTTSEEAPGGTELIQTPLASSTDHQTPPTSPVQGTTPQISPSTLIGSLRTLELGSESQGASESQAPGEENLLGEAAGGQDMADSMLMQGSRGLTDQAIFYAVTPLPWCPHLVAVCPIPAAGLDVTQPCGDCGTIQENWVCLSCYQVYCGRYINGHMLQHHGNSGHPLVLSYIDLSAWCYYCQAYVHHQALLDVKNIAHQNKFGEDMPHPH
The description is as §1.

Some results are limits rather than exact numbers.

Histone deacetylase 3, sequence (O15379 whole entry): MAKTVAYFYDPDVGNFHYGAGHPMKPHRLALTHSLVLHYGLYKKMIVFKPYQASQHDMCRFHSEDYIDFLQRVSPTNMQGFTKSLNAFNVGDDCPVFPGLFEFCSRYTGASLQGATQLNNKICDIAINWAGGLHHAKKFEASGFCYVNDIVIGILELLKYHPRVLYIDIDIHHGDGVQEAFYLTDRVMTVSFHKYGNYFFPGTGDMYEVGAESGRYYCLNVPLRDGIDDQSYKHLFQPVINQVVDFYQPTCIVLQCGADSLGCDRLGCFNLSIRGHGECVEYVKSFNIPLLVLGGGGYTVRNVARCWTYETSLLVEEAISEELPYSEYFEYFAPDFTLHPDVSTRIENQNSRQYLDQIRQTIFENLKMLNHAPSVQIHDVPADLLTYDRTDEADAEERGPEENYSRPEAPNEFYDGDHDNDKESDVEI
Histone deacetylase 1, sequence (Q13547 whole entry, canonical isoform): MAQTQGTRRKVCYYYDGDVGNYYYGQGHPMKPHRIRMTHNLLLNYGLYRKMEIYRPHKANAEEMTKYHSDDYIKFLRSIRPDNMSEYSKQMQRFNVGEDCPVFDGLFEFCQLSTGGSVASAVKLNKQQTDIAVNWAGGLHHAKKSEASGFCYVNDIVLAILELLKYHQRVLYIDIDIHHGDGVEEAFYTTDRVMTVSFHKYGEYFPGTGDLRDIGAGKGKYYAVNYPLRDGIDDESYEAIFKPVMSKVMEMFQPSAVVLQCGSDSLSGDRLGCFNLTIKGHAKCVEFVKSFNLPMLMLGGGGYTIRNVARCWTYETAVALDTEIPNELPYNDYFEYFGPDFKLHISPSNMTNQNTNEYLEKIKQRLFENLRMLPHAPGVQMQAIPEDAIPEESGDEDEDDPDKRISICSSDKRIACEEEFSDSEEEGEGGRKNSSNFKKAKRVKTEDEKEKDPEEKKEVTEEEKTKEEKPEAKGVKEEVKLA
Histone deacetylase 5, sequence (Q9UQL6 whole entry): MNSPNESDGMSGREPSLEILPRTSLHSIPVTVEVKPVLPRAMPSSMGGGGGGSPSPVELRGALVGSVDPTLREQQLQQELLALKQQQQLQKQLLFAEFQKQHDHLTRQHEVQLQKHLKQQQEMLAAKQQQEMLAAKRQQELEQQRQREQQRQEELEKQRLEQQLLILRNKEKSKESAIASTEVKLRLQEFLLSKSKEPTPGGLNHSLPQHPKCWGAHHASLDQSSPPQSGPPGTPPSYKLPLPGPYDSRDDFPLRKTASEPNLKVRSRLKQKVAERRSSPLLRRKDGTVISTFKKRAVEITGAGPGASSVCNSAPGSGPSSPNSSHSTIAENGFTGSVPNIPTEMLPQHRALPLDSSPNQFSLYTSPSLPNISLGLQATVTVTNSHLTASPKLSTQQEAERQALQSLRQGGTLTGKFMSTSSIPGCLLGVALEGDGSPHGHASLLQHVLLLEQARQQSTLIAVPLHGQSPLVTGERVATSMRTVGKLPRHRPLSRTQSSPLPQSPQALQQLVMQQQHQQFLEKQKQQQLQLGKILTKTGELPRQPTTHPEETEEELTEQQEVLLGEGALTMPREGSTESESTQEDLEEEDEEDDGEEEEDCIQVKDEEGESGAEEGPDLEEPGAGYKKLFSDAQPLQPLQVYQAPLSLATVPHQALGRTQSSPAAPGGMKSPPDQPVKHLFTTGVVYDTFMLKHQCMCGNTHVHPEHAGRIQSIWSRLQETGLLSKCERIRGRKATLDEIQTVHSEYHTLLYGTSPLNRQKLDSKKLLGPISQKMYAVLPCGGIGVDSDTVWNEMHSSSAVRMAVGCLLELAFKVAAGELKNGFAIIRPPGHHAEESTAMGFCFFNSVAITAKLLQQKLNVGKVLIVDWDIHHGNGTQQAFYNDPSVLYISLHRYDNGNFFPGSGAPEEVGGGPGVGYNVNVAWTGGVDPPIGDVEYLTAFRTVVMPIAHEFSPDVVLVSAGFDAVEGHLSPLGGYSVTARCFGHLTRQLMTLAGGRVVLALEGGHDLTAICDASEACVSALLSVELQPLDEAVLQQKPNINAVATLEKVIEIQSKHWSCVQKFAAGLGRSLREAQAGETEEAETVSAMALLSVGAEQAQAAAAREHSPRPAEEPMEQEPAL
Histone deacetylase 4, sequence (P56524 whole entry): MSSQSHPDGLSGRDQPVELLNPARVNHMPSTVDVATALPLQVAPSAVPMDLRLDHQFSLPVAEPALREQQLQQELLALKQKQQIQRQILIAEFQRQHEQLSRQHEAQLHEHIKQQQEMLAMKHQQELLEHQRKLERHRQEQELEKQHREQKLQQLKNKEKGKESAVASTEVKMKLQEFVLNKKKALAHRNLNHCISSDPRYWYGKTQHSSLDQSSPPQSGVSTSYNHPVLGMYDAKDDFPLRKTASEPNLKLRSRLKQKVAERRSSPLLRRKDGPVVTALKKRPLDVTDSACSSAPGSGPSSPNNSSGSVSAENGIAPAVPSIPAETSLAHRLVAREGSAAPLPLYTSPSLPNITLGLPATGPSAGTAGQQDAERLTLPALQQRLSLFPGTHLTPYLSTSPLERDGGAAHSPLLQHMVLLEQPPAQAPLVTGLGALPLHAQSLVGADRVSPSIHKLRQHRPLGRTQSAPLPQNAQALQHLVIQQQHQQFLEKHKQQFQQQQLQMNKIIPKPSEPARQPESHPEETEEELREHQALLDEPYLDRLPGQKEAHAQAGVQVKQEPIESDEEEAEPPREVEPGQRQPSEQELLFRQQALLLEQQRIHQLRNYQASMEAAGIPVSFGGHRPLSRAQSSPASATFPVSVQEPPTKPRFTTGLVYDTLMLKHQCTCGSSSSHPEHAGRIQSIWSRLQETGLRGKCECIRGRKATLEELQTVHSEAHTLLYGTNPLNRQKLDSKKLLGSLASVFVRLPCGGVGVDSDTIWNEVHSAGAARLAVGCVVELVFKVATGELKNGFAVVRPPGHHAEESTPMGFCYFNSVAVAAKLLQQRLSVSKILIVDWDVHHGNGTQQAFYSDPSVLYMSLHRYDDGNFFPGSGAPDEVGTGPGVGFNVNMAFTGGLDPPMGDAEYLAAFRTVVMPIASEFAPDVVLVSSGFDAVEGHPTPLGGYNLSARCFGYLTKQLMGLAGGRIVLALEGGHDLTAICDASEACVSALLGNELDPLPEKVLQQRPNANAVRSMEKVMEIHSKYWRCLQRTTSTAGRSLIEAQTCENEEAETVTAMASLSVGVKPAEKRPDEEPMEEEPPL
Histone deacetylase 2, sequence (Q92769 whole entry): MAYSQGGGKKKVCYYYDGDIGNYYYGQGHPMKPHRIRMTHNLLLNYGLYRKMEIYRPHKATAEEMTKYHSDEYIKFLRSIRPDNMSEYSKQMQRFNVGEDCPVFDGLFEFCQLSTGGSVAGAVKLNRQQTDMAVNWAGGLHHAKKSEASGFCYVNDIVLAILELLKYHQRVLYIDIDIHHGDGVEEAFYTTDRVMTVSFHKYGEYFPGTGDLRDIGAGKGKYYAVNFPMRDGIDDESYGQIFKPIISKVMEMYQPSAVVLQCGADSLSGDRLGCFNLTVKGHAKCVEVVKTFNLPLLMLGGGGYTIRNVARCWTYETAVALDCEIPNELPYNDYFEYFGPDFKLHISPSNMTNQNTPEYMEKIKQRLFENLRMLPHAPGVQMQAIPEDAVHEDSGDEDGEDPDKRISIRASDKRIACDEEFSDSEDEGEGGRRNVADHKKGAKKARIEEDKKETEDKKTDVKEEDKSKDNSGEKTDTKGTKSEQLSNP

The term IC50 denotes the point on the concentration scale where inhibition reaches its midpoint. On to `COc1cc2c(Oc3ccc(NC(=O)C4(C(=O)Nc5ccc(F)cc5)CC4)cc3F)ccnc2cc1OCCCCCC(=O)NO`, for which the IC50 against Histone deacetylase 1 was greater than 10 µM; at Histone deacetylase 11, 6.13 µM; against Histone deacetylase 2, 2.74 µM; against Histone deacetylase 3, greater than 10 µM; on Histone deacetylase 4, greater than 10 µM; on Histone deacetylase 5, greater than 10 µM. In addition, the IC50 at Histone deacetylase 8 stood at 1.63 µM; in assay [1], 0.0083 µM.

In the case of `COc1cc2c(Oc3ccc(NC(=O)C4(C(=O)Nc5ccc(F)cc5)CC4)cc3F)ccnc2cc1OCCCC(=O)NO`, the IC50 was greater than 10 µM on Histone deacetylase 1; greater than 10 µM at Histone deacetylase 11; 0.431 µM on Histone deacetylase 2; greater than 10 µM on Histone deacetylase 3; greater than 10 µM against Histone deacetylase 4; greater than 10 µM on Histone deacetylase 5. Further, the IC50 was 8.94 µM against Histone deacetylase 8 and 0.242 µM in assay [1].
